{"source": "paper PMC10862865", "about": "(bioRxiv, 2024)", "target": "tau4RD (Homo sapiens, UniProt P10636)", "sequence (P10636 561-685 limits assumed)": "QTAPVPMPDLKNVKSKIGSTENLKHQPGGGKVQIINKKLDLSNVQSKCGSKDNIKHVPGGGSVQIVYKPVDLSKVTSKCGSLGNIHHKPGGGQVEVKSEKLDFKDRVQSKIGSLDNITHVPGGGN", "assay": "Unseeded heparin-induced tau4RD aggregation, thioflavin T fluorescence", "format": "biochemical", "settings": "1:2 protein:compound molar ratio; ThT fluorescence", "data": [{"smiles": "O=C1c2ccccc2-n2c1nc1ccccc1c2=O", "note": "[compound 1, tryptanthrin]", "values": [{"measurement": "Inhibition of heparin-induced tau4RD aggregation in initial screen (in words)", "result": "among the most potent inhibitors"}]}]}
